2 molecules from BindingDB's records for doi:10.1016/0960-894X(96)00185-0 (1996) can be followed below.

The target of the experiment is Human immunodeficiency virus type 1 protease (Human immunodeficiency virus 1, UniProt Q72874). The experiment in a line: ChEBML_159443. From the text: In vitro inhibitory activity against HIV-1 protease(PR).

Usually IC50 stands for the point on the concentration scale where inhibition reaches its midpoint. Read a high IC50 as a need for much substance. Consider `O=c1oc(-c2ccc(O)cc2)cc(O)c1SCc1ccccc1` [3-Benzylsulfanyl-4-hydroxy-6-(4-hydroxy-phenyl)-pyran-2-one], for which half-maximal inhibition (IC50) was put at 690 nM. For `O=c1oc(-c2cccc(Cl)c2)cc(O)c1SCc1ccccc1` [3-Benzylsulfanyl-6-(3-chloro-phenyl)-4-hydroxy-pyran-2-one], it took 690 nM to reach half-maximal inhibition (IC50).
